From ChEMBL document CHEMBL1139352, “Synthesis and evaluation of novel inhibitors of Pim-1 and Pim-2 protein kinases” (J Med Chem, 2009)

Tests used:
Mus musculus [1] = assay: Toxicity in Swiss Webster mouse assessed as alkaline phosphatase level at 50 mg/kg, ip daily for 7 days measured after 7 days; assay type: organism-based; parameters: dose 50 mg/kg, route intraperitoneal; conditions: in vivo, 168 h
Mus musculus [2] = assay: Toxicity in Swiss-Webster mouse at 100 mg/kg, ip daily for 5 days; assay type: organism-based; parameters: dose 100 mg/kg, route intraperitoneal; conditions: in vivo, 120 h
[3] = tested on: Receptor-type tyrosine-protein kinase FLT3 (Homo sapiens), P36888 [D835Y]; assay: Inhibition of FLT3(D835Y) at 5 uM
Mus musculus [4] = assay: Toxicity in Swiss Webster mouse assessed as albumin level at 10 mg/kg, ip daily for 7 days measured after 7 days; assay type: organism-based; parameters: dose 10 mg/kg, route intraperitoneal; conditions: in vivo, 168 h
Mus musculus [5] = assay: Toxicity in Swiss Webster mouse assessed as glucose level at 3 mg/kg, ip daily for 7 days measured after 7 days; assay type: organism-based; parameters: dose 3 mg/kg, route intraperitoneal; conditions: in vivo, 168 h
Mus musculus [6] = assay: Toxicity in Swiss Webster mouse assessed as alkaline phosphatase level at 3 mg/kg, ip daily for 7 days measured after 7 days; assay type: organism-based; parameters: dose 3 mg/kg, route intraperitoneal; conditions: in vivo, 168 h
[7] = target: Tyrosine-protein kinase BTK (Homo sapiens) (UniProt Q06187); assay: Inhibition of BTK at 5 uM
Mus musculus [8] = assay: Toxicity in Swiss Webster mouse assessed as creatinine level at 10 mg/kg, ip daily for 7 days measured after 7 days; assay type: organism-based; parameters: dose 10 mg/kg, route intraperitoneal; conditions: in vivo, 168 h
[9] = target: Tyrosine-protein kinase Lyn (Homo sapiens) (UniProt P07948); assay: Inhibition of LYN at 5 uM
Mus musculus [10] = assay: Toxicity in Swiss Webster mouse assessed as phosphate level at 3 mg/kg, ip daily for 7 days measured after 7 days; assay type: organism-based; parameters: dose 3 mg/kg, route intraperitoneal; conditions: in vivo, 168 h
[11] = target: Glycogen synthase kinase-3 beta (Homo sapiens) (UniProt P49841); assay: Inhibition of GSK3-beta at 5 uM
Glycogen synthase kinase-3 beta (Homo sapiens), sequence (P49841 whole entry, looked up): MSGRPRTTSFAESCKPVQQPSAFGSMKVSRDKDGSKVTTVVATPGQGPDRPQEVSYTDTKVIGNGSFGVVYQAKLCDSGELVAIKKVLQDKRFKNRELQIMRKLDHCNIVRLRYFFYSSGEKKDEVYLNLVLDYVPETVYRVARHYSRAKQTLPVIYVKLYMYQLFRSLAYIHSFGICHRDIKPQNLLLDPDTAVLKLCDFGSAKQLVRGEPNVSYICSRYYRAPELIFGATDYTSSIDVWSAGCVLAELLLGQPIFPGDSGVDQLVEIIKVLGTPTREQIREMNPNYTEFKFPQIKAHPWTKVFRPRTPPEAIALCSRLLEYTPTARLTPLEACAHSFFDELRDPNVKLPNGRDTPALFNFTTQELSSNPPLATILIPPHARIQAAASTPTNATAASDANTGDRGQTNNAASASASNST

Tyrosine-protein kinase BTK (Homo sapiens), sequence (Q06187 whole entry): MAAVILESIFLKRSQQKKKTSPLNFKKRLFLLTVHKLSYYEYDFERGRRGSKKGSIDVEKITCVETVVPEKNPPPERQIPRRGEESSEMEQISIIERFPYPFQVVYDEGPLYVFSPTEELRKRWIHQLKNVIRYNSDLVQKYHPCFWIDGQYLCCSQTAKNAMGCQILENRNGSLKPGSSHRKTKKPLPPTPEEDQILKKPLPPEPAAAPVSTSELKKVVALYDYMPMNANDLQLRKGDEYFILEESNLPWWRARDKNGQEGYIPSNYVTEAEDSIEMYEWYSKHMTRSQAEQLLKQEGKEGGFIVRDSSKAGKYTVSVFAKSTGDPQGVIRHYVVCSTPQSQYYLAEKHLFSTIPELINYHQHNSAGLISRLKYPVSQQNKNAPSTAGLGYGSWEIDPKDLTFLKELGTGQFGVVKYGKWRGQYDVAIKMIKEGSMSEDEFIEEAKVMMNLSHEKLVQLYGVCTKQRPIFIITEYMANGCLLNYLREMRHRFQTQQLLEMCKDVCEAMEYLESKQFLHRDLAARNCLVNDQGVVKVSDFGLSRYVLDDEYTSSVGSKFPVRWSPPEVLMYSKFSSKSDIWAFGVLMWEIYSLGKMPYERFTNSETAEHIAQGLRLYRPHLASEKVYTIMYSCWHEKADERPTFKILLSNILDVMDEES
Tyrosine-protein kinase Lyn (Homo sapiens), sequence (P07948 2-512 limits assumed): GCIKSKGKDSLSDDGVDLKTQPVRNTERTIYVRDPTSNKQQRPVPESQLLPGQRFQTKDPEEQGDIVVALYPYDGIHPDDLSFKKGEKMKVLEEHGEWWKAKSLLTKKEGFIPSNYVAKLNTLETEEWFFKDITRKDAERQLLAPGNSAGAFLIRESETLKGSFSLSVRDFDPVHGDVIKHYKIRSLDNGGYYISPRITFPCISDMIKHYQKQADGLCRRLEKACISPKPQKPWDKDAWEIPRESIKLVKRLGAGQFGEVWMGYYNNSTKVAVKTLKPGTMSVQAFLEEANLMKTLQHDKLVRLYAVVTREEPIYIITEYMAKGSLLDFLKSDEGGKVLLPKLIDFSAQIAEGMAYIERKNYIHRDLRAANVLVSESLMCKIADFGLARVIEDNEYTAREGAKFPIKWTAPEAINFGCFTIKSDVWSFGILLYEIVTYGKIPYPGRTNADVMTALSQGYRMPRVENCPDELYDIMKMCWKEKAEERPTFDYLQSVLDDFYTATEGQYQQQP

How did the Activity (Mus musculus [1]) turn out when `CCCOc1ccc(/C=C2\SC(=O)NC2=O)cc1` was run?
Its Activity is 80 U/L.

And the Activity (Mus musculus [2])?
Its Activity is “Toxic”.

What about the inhibition [3] of the same compound?
The inhibition was 9%.

What about the Activity (Mus musculus [4]) of the same compound?
Its Activity is 2.9 g/dL.

And the Activity (Mus musculus [5])?
The Activity was 80 mg/dL.

What about the Activity (Mus musculus [6]) of the same compound?
Its Activity is 85 U/L.

What about the inhibition [7] of the same compound?
Its inhibition is 7%.

And the Activity (Mus musculus [8])?
Its Activity is 0.2 mg/dL.

What about the inhibition [9] of the same compound?
The inhibition was 8%.

What about the Activity (Mus musculus [10]) of the same compound?
The Activity was 5.1 mg/dL.

And the inhibition [11]?
Its inhibition is 3%.
